Measurements from US7141570B2, “N-aryl-2-oxazolidinone-5-carboxamides and their derivatives” (Pharmacia & Upjohn Company, priority 2002, dated 2006).
Converted amounts (≈) assume the structure as drawn.

Key:
[1] = system: E. Faecalis (EFAE 9217); test: MIC, agar dilution; assay type: cell-based; conditions: Enterococcus faecalis, E. Faecalis 9217, overnight at 35° C.
Experimental: (§1) The in vitro MICs of test compounds were determined by a standard agar dilution method. A stock drug solution of each analog was prepared in the preferred solvent, usually DMSO:H2O (1:3). Serial 2-fold dilutions of each sample are made using 1.0 ml aliquots of sterile distilled water. To each 1.0 ml aliquot of drug was added 9 ml of molten Mueller Hinton agar medium. The drug-supplemented agar was mixed, poured into 15×100 mm petri dishes, and allowed to solidify and dry prior to inoculation.
(§2) Vials of each of the test organisms are maintained frozen in the vapor phase of a liquid nitrogen freezer. Test cultures are grown overnight at 35° C. on the medium appropriate for the organism. Colonies are harvested with a sterile swab, and cell suspensions are prepared in Trypticase Soy broth (TSB) to equal the turbidity of a 0.5 McFarland standard. A 1:20 dilution of each suspension was made in TSB. The plates containing the drug supplemented agar are inoculated with a 0.001 ml drop of the cell suspension using a Steers replicator, yielding approximately 10^4 to 10^5 cells per spot. The plates are incubated overnight at 35° C.
(§3) Following incubation the Minimum Inhibitory Concentration (MIC μg/ml), the lowest concentration of drug that inhibits visible growth of the organism, was read and recorded.

[2] = system: E. Faecium (EFAE 12712); test: MIC, agar dilution; assay type: cell-based; conditions: Enterococcus faecium, E. Faecium 12712, overnight at 35° C.
Experimental: as §1, §2, §3

[3] = system: H. influenzae (HINF 30063); test: MIC, agar dilution; assay type: cell-based; conditions: Haemophilus influenzae, H. influenzae 30063, overnight at 35° C.
Experimental: as §1, §2, §3

[4] = system: H. influenzae (HINF 31810); test: MIC, agar dilution; assay type: cell-based; conditions: Haemophilus influenzae, H. influenzae 31810, overnight at 35° C.
Experimental: as §1, §2, §3

[5] = system: M. catarrhalis (MCAT 30607); test: MIC, agar dilution; assay type: cell-based; conditions: Moraxella catarrhalis, M. catarrhalis 30607, overnight at 35° C.
Experimental: as §1, §2, §3

[6] = system: S. aureus (SAUR 31583); test: MIC, agar dilution; assay type: cell-based; conditions: Staphylococcus aureus, S. aureus 31583, overnight at 35° C.
Experimental: as §1, §2, §3

[7] = system: S. aureus (SAUR 9213); test: MIC, agar dilution; assay type: cell-based; conditions: Staphylococcus aureus, S. aureus 9213, overnight at 35° C.
Experimental: as §1, §2, §3

[8] = system: S. epidermidis (SEPI 30593); test: MIC, agar dilution; assay type: cell-based; conditions: Staphylococcus epidermidis, S. epidermidis 30593, overnight at 35° C.
Experimental: as §1, §2, §3

[9] = system: S. pneumonia (SPNE 9912); test: MIC, agar dilution; assay type: cell-based; conditions: S. pneumonia 9912, overnight at 35° C.
Experimental: as §1, §2, §3

[10] = system: S. pyogenes (SPYO 152); test: MIC, agar dilution; assay type: cell-based; conditions: Streptococcus pyogenes, S. pyogenes 152, overnight at 35° C.
Experimental: as §1, §2, §3

| MIC [1] [µg/mL] | MIC [2] [µg/mL] | MIC [3] [µg/mL] | MIC [4] [µg/mL] | MIC [5] [µg/mL] | MIC [6] [µg/mL] | MIC [7] [µg/mL] | MIC [8] [µg/mL] | MIC [9] [µg/mL] | MIC [10] [µg/mL] | melting point | SMILES |
| --- | --- | --- | --- | --- | --- | --- | --- | --- | --- | --- | --- |
| 1 (≈ 1.76 µM) | 1 (≈ 1.76 µM) | 16 (≈ 28.1 µM) | 8 (≈ 14 µM) | 2 (≈ 3.51 µM) | 4 (≈ 7.02 µM) | 2 (≈ 3.51 µM) | 1 (≈ 1.76 µM) | 0.125 (≈ 0.219 µM) | 0.125 (≈ 0.219 µM) |  | CN(C)Cc1ccc(OCC(=O)N2CCN(c3ccc(N4C[C@H](CNC(=S)C5CC5)OC4=O)cc3F)CC2)cc1 [Compound 2] |
| 32 (≈ 57.6 µM) | 32 (≈ 57.6 µM) | > 64 | > 64 | 32 (≈ 57.6 µM) | > 64 | 32 (≈ 57.6 µM) | 8 (≈ 14.4 µM) | 2 (≈ 3.6 µM) | 2 (≈ 3.6 µM) |  | CCN(CC)Cc1ccc(OCC(=O)N2CCN(c3ccc(N4C[C@H](CNC(C)=O)OC4=O)cc3F)CC2)cc1 [Compound 8] |
| 2 (≈ 3.41 µM) | 2 (≈ 3.41 µM) | 32 (≈ 54.6 µM) | 32 (≈ 54.6 µM) | 4 (≈ 6.83 µM) | 32 (≈ 54.6 µM) | 4 (≈ 6.83 µM) | 2 (≈ 3.41 µM) | 0.25 (≈ 0.427 µM) | 0.25 (≈ 0.427 µM) |  | CCC(=S)NC[C@H]1CN(c2ccc(N3CCN(C(=O)COc4ccc(CN(CC)CC)cc4)CC3)c(F)c2)C(=O)O1 [Compound 9] |
| 2 (≈ 3.35 µM) | 2 (≈ 3.35 µM) | 32 (≈ 53.5 µM) | 32 (≈ 53.5 µM) | 2 (≈ 3.35 µM) | 8 (≈ 13.4 µM) | 2 (≈ 3.35 µM) | 1 (≈ 1.67 µM) | 0.25 (≈ 0.418 µM) | 0.25 (≈ 0.418 µM) |  | CCN(CC)Cc1ccc(OCC(=O)N2CCN(c3ccc(N4C[C@H](CNC(=S)C5CC5)OC4=O)cc3F)CC2)cc1 [Compound 10] |
| 1 (≈ 1.79 µM) | 2 (≈ 3.59 µM) | 16 (≈ 28.7 µM) | 16 (≈ 28.7 µM) | 4 (≈ 7.17 µM) | 16 (≈ 28.7 µM) | 8 (≈ 14.3 µM) | 1 (≈ 1.79 µM) | 0.125 (≈ 0.224 µM) | 0.25 (≈ 0.448 µM) |  | CCC(=S)NC[C@H]1CN(c2ccc(N3CCN(C(=O)COc4ccc(CN(C)C)cc4)CC3)c(F)c2)C(=O)O1 [Compound 13] |
|  | 2 (≈ 3.26 µM) | 32 (≈ 52.2 µM) | 16 (≈ 26.1 µM) | 2 (≈ 3.26 µM) | 32 (≈ 52.2 µM) | 8 (≈ 13.1 µM) | 2 (≈ 3.26 µM) | 0.125 (≈ 0.204 µM) | 0.25 (≈ 0.408 µM) |  | CCC(=S)NC[C@H]1CN(c2ccc(N3CCN(C(=O)COc4ccc(CN5CCN(C)CC5)cc4)CC3)c(F)c2)C(=O)O1 [Compound 22] |
|  | 8 (≈ 12.8 µM) | 64 (≈ 102 µM) | 64 (≈ 102 µM) | 32 (≈ 51.2 µM) | > 64 | 16 (≈ 25.6 µM) | 8 (≈ 12.8 µM) | 0.5 (≈ 0.8 µM) | 0.5 (≈ 0.8 µM) |  | CN1CCN(Cc2ccc(OCC(=O)N3CCN(c4ccc(N5C[C@H](CNC(=S)C6CC6)OC5=O)cc4F)CC3)cc2)CC1 [Compound 23] |
|  | 2 (≈ 3.43 µM) | 32 (≈ 54.9 µM) | 16 (≈ 27.5 µM) | 2 (≈ 3.43 µM) | 16 (≈ 27.5 µM) | 4 (≈ 6.86 µM) | 2 (≈ 3.43 µM) | 0.125 (≈ 0.215 µM) | 0.25 (≈ 0.429 µM) |  | CC(=O)NC[C@H]1CN(c2ccc(N3CCN(C(=O)COc4ccc(CN5CCN(C)CC5)cc4)CC3)c(F)c2)C(=O)O1 [Compound 24] |
|  |  |  |  |  |  |  |  |  |  | 98 °C | CCC(=S)NC[C@H]1CN(c2ccc(N3CCN(C(=O)COc4ccc(CN(CC)CC)cc4)CC3)c(F)c2)C(=O)O1 [Example 1, N-[((5S)-3-{4-[4-({4-[(Diethylamino)methyl]phenoxy}acetyl)piperazin-1-yl]-3-fluorophenyl}-2-oxo-1,3-oxazolidin-5-yl)methyl]propanethioamide] |
|  |  |  |  |  |  |  |  |  |  | 163 to 164 °C | CCC(=S)NC[C@H]1CN(c2ccc(N3CCN(C(=O)COc4ccc(CN(C)C)cc4)CC3)c(F)c2)C(=O)O1 [Example 4, N-[((5S)-3{4-[4-({4-[(Dimethylamino)methyl]phenoxy}acetyl)piperazin-1-yl]-3-fluorophenyl}-2-oxo-1,3-oxazolidin-5-yl)methyl]propanethioamide] |
|  |  |  |  |  |  |  |  |  |  | 159 to 160 °C | CCC(=S)NC[C@H]1CN(c2ccc(N3CCN(C(=O)COc4ccc(CN5CCOCC5)cc4)CC3)c(F)c2)C(=O)O1 [Example 7, N-({(5S)-3-[3-Fluoro-4-(4-{[4-(morpholin-4-ylmethyl)phenoxy]acetyl}piperazin-1-yl)phenyl]-2-oxo-1,3-oxazolidin-5-yl}methyl)propanethioamide] |
|  |  |  |  |  |  |  |  |  |  | 174 to 175 °C | CN(C)Cc1ccc(C(=O)CCC(=O)N2CCN(c3ccc(N4C[C@H](CNC(=S)C5CC5)OC4=O)cc3F)CC2)cc1 [Example 14, N-[((5S)-3-{4-[4-(4-{4-[(Dimethylamino)methyl]phenyl}-4-oxobutanoyl)-1-piperazinyl]-3-fluorophenyl}-2-oxo-1,3-oxazolidin-5-yl)methyl]cyclopropanecarbothioamide] |
|  |  |  |  |  |  |  |  |  |  | 190 to 192 °C | CC(=O)NC[C@H]1CN(c2ccc(N3CCN(C(=O)CCC(=O)c4ccc(CN(C)C)cc4)CC3)c(F)c2)C(=O)O1 [Example 15, N-[((5S)-3-{4-[4-(4-{4-[(Dimethylamino)methyl]phenyl}-4-oxobutanoyl)-1-piperazinyl]-3-fluorophenyl}-2-oxo-1,3-oxazolidin-5-yl)methyl]acetamide] |
|  |  |  |  |  |  |  |  |  |  | 160 °C | CCC(=S)NC[C@H]1CN(c2ccc(N3CCN(C(=O)CCC(=O)c4ccc(CN5CCOCC5)cc4)CC3)c(F)c2)C(=O)O1 [Example 16, N-({(5S)-3-[3-Fluoro-4-(4-{4-[4-(4-morpholinylmethyl)phenyl]-4-oxobutanoyl}-1-piperazinyl)phenyl]-2-oxo-1,3-oxazolidin-5-yl}methyl)propanethioamide] |
|  |  |  |  |  |  |  |  |  |  | 160 to 160.5 °C | CC(=O)NC[C@H]1CN(c2ccc(N3CCN(C(=O)CCC(=O)c4ccc(CNC(=O)CN(C)C)cc4)CC3)c(F)c2)C(=O)O1 [Example 22, N^1-(4-{4-[4-(4-{(5S)-5-[(Acetylamino)methyl]-2-oxo-1,3-oxazolidin-3-yl}-2-fluorophenyl)piperazin-1-yl]-4-oxobutanoyl}benzyl)-N^2,N^2-dimethylglycinamide] |
|  |  |  |  |  |  |  |  |  |  | 164 to 165 °C | COc1ccc(CCCC(=O)N2CCN(c3ccc(N4C[C@H](CNC(C)=O)OC4=O)cc3F)CC2)cc1 [Example 41, N-{[(5S)-3-(3-Fluoro-4-{4-[4-(4-methoxyphenyl)butanoyl]piperazine-1-yl}phenyl)-2-oxo-1,3-oxazolidin-5-yl]methyl}acetamide] |
|  |  |  |  |  |  |  |  |  |  | 119 to 120 °C (dec.) | CC(=O)NC[C@H]1CN(c2ccc(N3CCN(C(=O)CCCc4ccc(O)cc4)CC3)c(F)c2)C(=O)O1 [Example 42, N-{[(5S)-3-(3-Fluoro-4-{4-[4-(4-hydroxyphenyl)butanoyl]piperazin-1-yl}phenyl)-2-oxo-1,3-oxazolidin-5-yl]methyl}acetamide] |
|  |  |  |  |  |  |  |  |  |  | 197 to 198 °C | CC(=O)NC[C@H]1CN(c2ccc(N3CCN(C(=O)CCC(=O)c4ccc(Br)cc4)CC3)c(F)c2)C(=O)O1 [Example 44, N-{[(5S)-3-(4-{4-[4-(4-Bromophenyl)-4-oxobutanoyl]-1-piperazinyl}-3-fluorophenyl)-2-oxo-1,3-oxazolidin-5-yl]methyl}acetamide] |
|  |  |  |  |  |  |  |  |  |  | 208 to 209 °C | CC(=O)NC[C@H]1CN(c2ccc(N3CCN(C(=O)CCC(=O)c4ccc(Cl)cc4)CC3)c(F)c2)C(=O)O1 [Example 49, N-{[(5S)-3-(4-{4-[4-(4-Chlorophenyl)-4-oxobutanoyl]-1-piperazinyl}-3-fluorophenyl)-2-oxo-1,3-oxazolidin-5-yl]methyl}acetamide] |
|  |  |  |  |  |  |  |  |  |  | 215 to 216 °C (dec.) | CC(=S)NC[C@H]1CN(c2ccc(N3CCN(C(=O)CCC(=O)c4ccc(Cl)cc4)CC3)c(F)c2)C(=O)O1 [Example 50, N-{[(5S)-3-(4-{4-[4-(4-chlorophenyl)-4-oxobutanoyl]-1-piperazinyl}-3-fluorophenyl)-2-oxo-1,3-oxazolidin-5-yl]methyl}ethanethioamide] |
|  |  |  |  |  |  |  |  |  |  | 199 to 200 °C (dec.) | CC(=O)NC[C@H]1CN(c2ccc(N3CCN(C(=O)CCCc4ccc(NC(=O)CN)cc4)CC3)c(F)c2)C(=O)O1 [Example 60, N-(4-{4-[4-(4-{(5S)-5-[(Acetylamino)methyl]-2-oxo-1,3-oxazolidin-3-yl}-2-fluorophenyl)-1-piperazinyl]-4-oxobutyl}phenyl)-2-aminoacetamide] |
|  |  |  |  |  |  |  |  |  |  | 241 to 243 °C (dec.) | CC(=O)NC[C@H]1CN(c2ccc(N3CCN(C(=O)CN4C(=O)c5ccc(N)cc5C4=O)CC3)c(F)c2)C(=O)O1 [Example 70, N-{[(5S)-3-(4-{4-[(5-Amino-1,3-dioxo-1,3-dihydro-2H-isoindol-2-yl)acetyl]piperazin-1-yl}-3-fluorophenyl)-2-oxo-1,3-oxazolidin-5-yl]methyl}acetamide] |
